According to US20250143299A1, “METHODS AND COMPOSITIONS FOR CONTROLLING PESTS IN VEGETABLES” (Globachem NV, priority 2022, published 2025):

Assays:
Format in all cases: in vivo
Tomato [1] = assay: Example 1 phytotoxicity, general injury (PHYGEN) on tomato; details: appl. A
Description: (§1) “Low Phytotoxicity” of pelargonic acid, as used herein means that the toxic effect on plants is absent or at such a level so as not to adversely impact the growth and/or yield of the plant under a given set of test conditions, e.g., at a given concentration of pelargonic acid. Phytotoxic effects may be measured in a number of different ways, for example, according to the principals set out in OEPP/EPPO Bulletin (2014) 44(3), 265-273 “PP 1/135 (4) Phytotoxicity assessment”. The phytotoxic effect on plants may be assessed visually as a function of the percentage of discoloration to the leaves and/or the appearance of necrosis. When the pelargonic acid compositions are applied to the foliage of the vegetable plants in accordance with the teachings herein, will typically result in a level of phytotoxicity of less than 20%, preferably less than 15%, more preferably less than 10% necrosis of the leaves in comparison to untreated plants. Preferred uses of the invention will typically result in phytotoxicity of 7% or less, whilst the most preferred uses will typically result in phytotoxicity of 5% or less. The above values are approximate as any purely visual assessment is likely to contain a degree of subjectivity.
Trial conducted in 4 replicates on plots of 10 plants each. Application A was made at the occurrence of the insects.

Tomato [2] = assay: Example 2 phytotoxicity, necrosis/burn (PHYNEC) on tomato; parameters: key: % visual leaf necrosis/discoloration vs untreated plants; details: appl. AB
Description: as §1
Trial conducted in 4 replicates on plots of 25 plants each. Application was made at the occurrence of the insects.

[3] = system: Leptinotarsa decemlineata; assay: Example 8 Trial 1 potato, Leptinotarsa decemlineata (Colorado potato beetle) control; details: appl. AB, 8 DAB
Description: Potatoes—Leptinotarsa decemlineata (Colorado Potato Beetle)—LEPTNDE
(§2) Trial 1: Potatoes, variety Lady Amarilla, 4 replicates per plot, each plot at least 25 m^2. A water volume of 200 L water/ha was used for each application. Two applications were made at a 14d interval.
(§3) Application made at the occurrence of the insects. Application A was made at Stage BBCH 36, application B was made 14 days later at Stage BBCH 51.
Insects present at the time of application: at App A 39/10 plants at App B in untreated: 35/10 plants.

Potato = assay: Example 8 Trial 1 phytotoxicity, general injury (PHYGEN) on potato; parameters: scale not given here; details: appl. AB
Description: as §2, §3

Myzus persicae = assay: Example 10 potato trial, Myzus persicae (green aphids, MYZUPE) control; details: appl. AB
Description: Potatoes—Myzus persicae (Green Aphids)—MYZUPE
Potatoes, variety Agata, 4 replicates per plot. A water volume of 200 L water/ha was used for each application. Two applications were made at a 14d interval.
Application made at the occurrence of the insects. Application A was made at Stage BBCH 38-41, application B was made 14 days later at Stage BBCH 41-43.
Insects present at the time of application: at App A 93 aphids per 25 leaves at App B in untreated: 160 aphids per 25 leaves

Halyomorpha halys = assay: Example 13 egg trial, egg mass immersion bioassay on Halyomorpha halys; details: for % Live instars emerged: egg mass immersion
Method: Halyomorpha halys were obtained from a lab strain that was mass reared for several generations from a field strain. Egg masses were provided at the same stage (2-3 days before hatching) in order to test same egg masses conditions.
Bioassay, consisting in egg masses immersion, was carried out dipping the egg masses by means of lab forceps for two second inside three different PA product concentrations (100 ppm, 50 ppm and 33 ppm), one treatment with a commercial standard (Trebon up, a.i., Etofenprox) and a treatment with only water (untreated Check) were performed. 4 replicates were performed (1 egg mass is considered 1 replicate).
Assessments were conducted at 1, 2, 4 days after application, egg mortality and larvae hatching from eggs were recorded, raw data were processed with ARM software. All the statistical procedures [Student-Newman-Keuls (SNK)], Anova and other calculation analysis were performed using the ARM 2020.0 software.

[4] = Halyomorpha halys, read-out: % Egg mortality

## CCCCCCCCC(=O)O [PA, pelargonic acid]
Tomato [1]; 650 g/ha (1 L/ha), 0 DAA
  Phytotoxicity - General Injury (PHYGEN): 0%
Tomato [1]; 650 g/ha (1 L/ha), 2 DAA
  Phytotoxicity - General Injury (PHYGEN): 0%
Tomato [1]; 650 g/ha (1 L/ha), 8 DAA
  Phytotoxicity - General Injury (PHYGEN): 0%
Tomato [1]; 650 g/ha (1 L/ha), 15 DAA
  Phytotoxicity - General Injury (PHYGEN): 0%
Tomato [1]; 1300 g/ha (2 L/ha), 0 DAA
  Phytotoxicity - General Injury (PHYGEN): 0%
Tomato [1]; 1300 g/ha (2 L/ha), 2 DAA
  Phytotoxicity - General Injury (PHYGEN): 0%
Tomato [1]; 1300 g/ha (2 L/ha), 8 DAA
  Phytotoxicity - General Injury (PHYGEN): 0%
Tomato [1]; 1300 g/ha (2 L/ha), 15 DAA
  Phytotoxicity - General Injury (PHYGEN): 0%
Tomato [1]; 2600 g/ha (4 L/ha), 0 DAA
  Phytotoxicity - General Injury (PHYGEN): 0%
Tomato [1]; 2600 g/ha (4 L/ha), 2 DAA
  Phytotoxicity - General Injury (PHYGEN): 0%
Tomato [1]; 2600 g/ha (4 L/ha), 8 DAA
  Phytotoxicity - General Injury (PHYGEN): 0%
Tomato [1]; 2600 g/ha (4 L/ha), 15 DAA
  Phytotoxicity - General Injury (PHYGEN): 0%
Tomato [2]; 1300 g/ha (2 L/ha), 3 DAA
  Phytotoxicity - Necrosis/burn (PHYNEC): 0
Tomato [2]; 1300 g/ha (2 L/ha), 7 DAA
  Phytotoxicity - Necrosis/burn (PHYNEC): 0
Tomato [2]; 1300 g/ha (2 L/ha), 7 DAB
  Phytotoxicity - Necrosis/burn (PHYNEC): 0
Tomato [2]; 1300 g/ha (2 L/ha), 14 DAA
  Phytotoxicity - Necrosis/burn (PHYNEC): 0
Tomato [2]; 1950 g/ha (3 L/ha), 3 DAA
  Phytotoxicity - Necrosis/burn (PHYNEC): 0
Tomato [2]; 1950 g/ha (3 L/ha), 7 DAA
  Phytotoxicity - Necrosis/burn (PHYNEC): 0
Tomato [2]; 1950 g/ha (3 L/ha), 7 DAB
  Phytotoxicity - Necrosis/burn (PHYNEC): 0
Tomato [2]; 1950 g/ha (3 L/ha), 14 DAA
  Phytotoxicity - Necrosis/burn (PHYNEC): 0
Tomato [2]; 2600 g/ha (4 L/ha), 3 DAA
  Phytotoxicity - Necrosis/burn (PHYNEC): 0
Tomato [2]; 2600 g/ha (4 L/ha), 7 DAA
  Phytotoxicity - Necrosis/burn (PHYNEC): 0
Tomato [2]; 2600 g/ha (4 L/ha), 7 DAB
  Phytotoxicity - Necrosis/burn (PHYNEC): 0
Tomato [2]; 2600 g/ha (4 L/ha), 14 DAA
  Phytotoxicity - Necrosis/burn (PHYNEC): 0
Tomato [2]; 5200 g/ha (8 L/ha), 3 DAA
  Phytotoxicity - Necrosis/burn (PHYNEC): 0
Tomato [2]; 5200 g/ha (8 L/ha), 7 DAA
  Phytotoxicity - Necrosis/burn (PHYNEC): 0
Tomato [2]; 5200 g/ha (8 L/ha), 7 DAB
  Phytotoxicity - Necrosis/burn (PHYNEC): 0
Tomato [2]; 5200 g/ha (8 L/ha), 14 DAA
  Phytotoxicity - Necrosis/burn (PHYNEC): 0
[3]; 585 g/ha (0.9 L/ha)
  COUINS # L1-L3/10 plants: 88.2 % UNCK
  COUINS # L4/10 plants: 57.9 % UNCK
[3]; 975 g/ha (1.5 L/ha)
  COUINS # L1-L3/10 plants: 17.6 % UNCK
  COUINS # L4/10 plants: 57.9 % UNCK
[3]; 1300 g/ha (2.0 L/ha)
  COUINS # L1-L3/10 plants: 82.4 % UNCK
  COUINS # L4/10 plants: 57.9 % UNCK
[3]; 2600 g/ha (4.0 L/ha)
  COUINS # L1-L3/10 plants: 76.5 % UNCK
  COUINS # L4/10 plants: 68.4 % UNCK
Potato; 585 g/ha (0.9 L/ha), 3 DAB
  Phytotoxicity - General Injury (PHYGEN): 0
Potato; 585 g/ha (0.9 L/ha), 7 DAA
  Phytotoxicity - General Injury (PHYGEN): 0
Potato; 585 g/ha (0.9 L/ha), 8 DAB
  Phytotoxicity - General Injury (PHYGEN): 0
Potato; 585 g/ha (0.9 L/ha), 15 DAA
  Phytotoxicity - General Injury (PHYGEN): 0
Potato; 975 g/ha (1.5 L/ha), 3 DAB
  Phytotoxicity - General Injury (PHYGEN): 0
Potato; 975 g/ha (1.5 L/ha), 7 DAA
  Phytotoxicity - General Injury (PHYGEN): 1.3
Potato; 975 g/ha (1.5 L/ha), 8 DAB
  Phytotoxicity - General Injury (PHYGEN): 0
Potato; 975 g/ha (1.5 L/ha), 15 DAA
  Phytotoxicity - General Injury (PHYGEN): 0
Potato; 1300 g/ha (2.0 L/ha), 3 DAB
  Phytotoxicity - General Injury (PHYGEN): 1
Potato; 1300 g/ha (2.0 L/ha), 7 DAA
  Phytotoxicity - General Injury (PHYGEN): 1
Potato; 1300 g/ha (2.0 L/ha), 8 DAB
  Phytotoxicity - General Injury (PHYGEN): 1
Potato; 1300 g/ha (2.0 L/ha), 15 DAA
  Phytotoxicity - General Injury (PHYGEN): 0
Potato; 2600 g/ha (4.0 L/ha), 3 DAB
  Phytotoxicity - General Injury (PHYGEN): 4.5
Potato; 2600 g/ha (4.0 L/ha), 7 DAA
  Phytotoxicity - General Injury (PHYGEN): 6
Potato; 2600 g/ha (4.0 L/ha), 8 DAB
  Phytotoxicity - General Injury (PHYGEN): 5
Potato; 2600 g/ha (4.0 L/ha), 15 DAA
  Phytotoxicity - General Injury (PHYGEN): 4
Myzus persicae; 585 g/ha (0.9 L/ha), 3 DAA
  COUINS, #/25 leaves: 38.8 % UNCK
Myzus persicae; 585 g/ha (0.9 L/ha), 3 DAB
  COUINS, #/25 leaves: 68.8 % UNCK
Myzus persicae; 585 g/ha (0.9 L/ha), 7 DAA
  COUINS, #/25 leaves: 48.7 % UNCK
Myzus persicae; 585 g/ha (0.9 L/ha), 7 DAB
  COUINS, #/25 leaves: 68.4 % UNCK
Myzus persicae; 585 g/ha (0.9 L/ha), 14 DAA
  COUINS, #/25 leaves: 52.3 % UNCK
Myzus persicae; 585 g/ha (0.9 L/ha), 14 DAB
  COUINS, #/25 leaves: 73.4 % UNCK
Myzus persicae; 975 g/ha (1.5 L/ha), 3 DAA
  COUINS, #/25 leaves: 42.9 % UNCK
Myzus persicae; 975 g/ha (1.5 L/ha), 3 DAB
  COUINS, #/25 leaves: 72.6 % UNCK
Myzus persicae; 975 g/ha (1.5 L/ha), 7 DAA
  COUINS, #/25 leaves: 51.2 % UNCK
Myzus persicae; 975 g/ha (1.5 L/ha), 7 DAB
  COUINS, #/25 leaves: 72.4 % UNCK
Myzus persicae; 975 g/ha (1.5 L/ha), 14 DAA
  COUINS, #/25 leaves: 54.9 % UNCK
Myzus persicae; 975 g/ha (1.5 L/ha), 14 DAB
  COUINS, #/25 leaves: 73.2 % UNCK
Myzus persicae; 1300 g/ha (2.0 L/ha), 3 DAA
  COUINS, #/25 leaves: 61.9 % UNCK
Myzus persicae; 1300 g/ha (2.0 L/ha), 3 DAB
  COUINS, #/25 leaves: 86.1 % UNCK
Myzus persicae; 1300 g/ha (2.0 L/ha), 7 DAA
  COUINS, #/25 leaves: 63.9 % UNCK
Myzus persicae; 1300 g/ha (2.0 L/ha), 7 DAB
  COUINS, #/25 leaves: 86.1 % UNCK
Myzus persicae; 1300 g/ha (2.0 L/ha), 14 DAA
  COUINS, #/25 leaves: 67.3 % UNCK
Myzus persicae; 1300 g/ha (2.0 L/ha), 14 DAB
  COUINS, #/25 leaves: 86.5 % UNCK
Myzus persicae; 2600 g/ha (4.0 L/ha), 3 DAA
  COUINS, #/25 leaves: 68.4 % UNCK
Myzus persicae; 2600 g/ha (4.0 L/ha), 3 DAB
  COUINS, #/25 leaves: 92.6 % UNCK
Myzus persicae; 2600 g/ha (4.0 L/ha), 7 DAA
  COUINS, #/25 leaves: 70.8 % UNCK
Myzus persicae; 2600 g/ha (4.0 L/ha), 7 DAB
  COUINS, #/25 leaves: 92.5 % UNCK
Myzus persicae; 2600 g/ha (4.0 L/ha), 14 DAA
  COUINS, #/25 leaves: 74.2 % UNCK
Myzus persicae; 2600 g/ha (4.0 L/ha), 14 DAB
  COUINS, #/25 leaves: 92.4 % UNCK
Halyomorpha halys; [4]
  mortality at 33 ppm: 17%
  mortality at 50 ppm: 46%
  mortality at 100 ppm: 65%
Halyomorpha halys; 33 ppm ai (3.3 ml/l)
  % Live instars emerged: 47%
Halyomorpha halys; 50 ppm ai (5 ml/l)
  % Live instars emerged: 18%
Halyomorpha halys; 100 ppm ai (10 ml/l)
  % Live instars emerged: 5%
